The subject of series [1] is HOP-92. Kind of series: Antitumor activity against human HOP92 cells assessed as cell growth inhibition at 10 uM incubated for 48 hrs by sulforhodamine B assay. The conditions noted are these: read-out: GI. It counts as functional.
The test system of series [2] is HCC 2998. The series is described as follows: Antitumor activity against human HCC2998 cells assessed as cell growth inhibition at 10 uM incubated for 48 hrs by sulforhodamine B assay. The class given is functional. As to conditions: read-out: GI. On the technique in general: The SRB assay estimates cell density from bound dye.
Series [3] concerns HT-29. Kind of series: Antitumor activity against human HT-29 cells assessed as cell growth inhibition at 10 uM incubated for 48 hrs by sulforhodamine B assay. It counts as functional. The conditions noted are these: read-out: GI.
The test system of series [4] is SNB-19. The series is described as follows: Antitumor activity against human SNB-19 cells assessed as cell growth inhibition at 10 uM incubated for 48 hrs by sulforhodamine B assay. The class given is functional. The conditions noted are these: read-out: GI.
The subject of series [5] is SNB-75. Kind of series: Antitumor activity against human SNB-75 cells assessed as cell growth inhibition at 10 uM incubated for 48 hrs by sulforhodamine B assay. As to conditions: read-out: GI. It counts as functional.
For series [6], the system named is LOX IMVI. Kind of series: Antitumor activity against human LOX IMVI cells assessed as cell growth inhibition at 10 uM incubated for 48 hrs by sulforhodamine B assay. The class given is functional. As to conditions: read-out: GI.
The subject of series [7] is UACC-62. The series is described as follows: Antitumor activity against human UACC-62 cells assessed as cell growth inhibition at 10 uM incubated for 48 hrs by sulforhodamine B assay. The conditions noted are these: read-out: GI. It counts as functional.
For series [8], the system named is ACHN. Kind of series: Antitumor activity against human ACHN cells assessed as cell growth inhibition at 10 uM incubated for 48 hrs by sulforhodamine B assay. It counts as functional. The conditions noted are these: read-out: GI.
The subject of series [9] is RXF 393. The series is described as follows: Antitumor activity against human RXF 393 cells assessed as cell growth inhibition at 10 uM incubated for 48 hrs by sulforhodamine B assay. As to conditions: read-out: GI. It counts as functional.
Series [10] deals with PC-3. The series is described as follows: Antitumor activity against human PC-3 cells assessed as cell growth inhibition at 10 uM incubated for 48 hrs by sulforhodamine B assay. The class given is functional. As to conditions: read-out: GI.
Series [11] has as its system HEK293. Kind of series: Cytotoxicity against human HEK293 assessed as reduction in cell viability at 100 uM after 48 hrs by MTT assay. The conditions noted are these: hek293, 48 h. The class given is cell-based. (In general: Tetrazolium dyes change colour on reduction, which living cells bring about.)
Series [12] has as its system HEK293. Kind of series: Cytotoxicity against human HEK293 assessed as reduction in cell viability at 0.1 uM after 48 hrs by MTT assay. As to conditions: hek293, 48 h. It counts as cell-based.
The subject of series [13] is Calf thymus DNA. The series is described as follows: Binding affinity to minor groove of calf thymus DNA assessed as ICD band intensity between 350 and 400 nm at 1 uM by CD spectroscopy. It counts as nucleic-acid assay. As to conditions: Bos taurus.
In series [14] the target is T1, Albumin (Bos taurus, UniProt P02769). The series is described as follows: Binding affinity to bovine serum albumin assessed as increase in absorption intensity at 280 nm at 0-10 uM by UV-vis absorption spectral titration analysis. The class given is ADME, cell-free. The conditions noted are these: cattle.
The target in series [15] is T1, Albumin. Kind of series: Binding affinity to bovine serum albumin assessed as quenching constant at 298K by fluorescence emission spectrum analysis. It counts as ADME, cell-free. The conditions noted are these: cattle.
Series [16] has as its target T2, Albumin (Homo sapiens, UniProt P02768). Kind of series: Binding affinity to human serum albumin assessed as appearance of new absorption band at 400 nm at 0-7 uM by UV-Vis absorption spectroscopy. The class given is ADME, cell-free. As to conditions: 0.4 µM.
For series [17], the target named is T2, Albumin. Kind of series: Binding affinity to human serum albumin assessed as binding constant by fluorescence emission spectroscopy. It counts as ADME, cell-free.

From ChEMBL document CHEMBL4665624, “Synthesis of 5-(4-(1H-phenanthro[9,10-d]imidazol-2-yl)benzylidene)thiazolidine-2,4-dione as promising DNA and serum albumin-binding agents and evaluation of antitumor activity” (Eur J Med Chem, 2019) come the findings set out here.

Molecules are shown by their SMILES. Calls of active or inactive are those of the source. No cut-off for these calls is given here.

T1 sequence (P02769 whole entry): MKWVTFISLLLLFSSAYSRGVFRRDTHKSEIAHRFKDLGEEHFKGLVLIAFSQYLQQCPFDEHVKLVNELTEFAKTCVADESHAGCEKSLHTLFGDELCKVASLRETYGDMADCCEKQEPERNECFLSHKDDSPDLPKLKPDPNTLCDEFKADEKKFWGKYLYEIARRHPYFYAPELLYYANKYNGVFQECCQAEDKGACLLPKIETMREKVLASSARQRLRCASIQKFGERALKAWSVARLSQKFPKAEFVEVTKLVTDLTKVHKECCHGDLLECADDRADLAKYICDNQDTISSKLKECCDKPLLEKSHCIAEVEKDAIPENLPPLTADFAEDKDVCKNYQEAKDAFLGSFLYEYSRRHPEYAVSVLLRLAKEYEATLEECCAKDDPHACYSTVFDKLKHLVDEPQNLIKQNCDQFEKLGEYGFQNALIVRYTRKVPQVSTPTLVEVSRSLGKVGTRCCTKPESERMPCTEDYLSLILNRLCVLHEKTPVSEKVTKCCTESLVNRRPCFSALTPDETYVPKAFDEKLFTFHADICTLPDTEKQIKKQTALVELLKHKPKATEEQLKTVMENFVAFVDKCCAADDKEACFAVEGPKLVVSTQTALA
T2 sequence (P02768 whole entry): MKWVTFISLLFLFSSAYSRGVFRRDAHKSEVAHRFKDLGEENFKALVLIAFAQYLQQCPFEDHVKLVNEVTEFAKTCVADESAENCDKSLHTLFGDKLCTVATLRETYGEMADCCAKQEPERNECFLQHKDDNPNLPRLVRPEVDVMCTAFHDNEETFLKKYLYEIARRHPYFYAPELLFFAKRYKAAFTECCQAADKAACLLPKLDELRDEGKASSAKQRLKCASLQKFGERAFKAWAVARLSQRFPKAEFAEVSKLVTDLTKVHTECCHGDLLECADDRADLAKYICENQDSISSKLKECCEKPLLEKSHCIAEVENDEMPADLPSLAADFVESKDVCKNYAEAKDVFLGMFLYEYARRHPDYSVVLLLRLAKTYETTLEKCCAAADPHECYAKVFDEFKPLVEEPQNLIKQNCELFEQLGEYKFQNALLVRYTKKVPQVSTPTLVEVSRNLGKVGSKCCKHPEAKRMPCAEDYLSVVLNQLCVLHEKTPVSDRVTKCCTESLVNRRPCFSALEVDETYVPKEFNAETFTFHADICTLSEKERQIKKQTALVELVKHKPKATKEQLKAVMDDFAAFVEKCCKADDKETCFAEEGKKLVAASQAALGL

As to `O=C1NC(=O)/C(=C/c2ccc(-c3nc4c5ccccc5c5ccccc5c4[nH]3)cc2)S1`, the inhibition of growth at 10 µM was 21.4% in [1]; less than 10% in series [2]; 24% in [3]; 18.1% in series [4]; less than 10% in series [5]; 36.7% in [6]. Also, the inhibition of growth at 10 µM in [7] was found to be 30.3%; in [8], 33.4%; in series [9], 19.1%; in series [10], 51.9%. Further, the Activity is given as 15% in series [11], 5% in series [12], “Active” in series [14] and “Active” in series [16]. In series [13], the result was inactive. The Kq in series [15] is 8.42 10^13/M/sec. The Kb in series [17] is 7.29 10^6/M.
